Experimental data from publication PMC5859250, “Contribution of transformation products towards the total herbicide toxicity to tropical marine organisms” (Scientific Reports, 2018).
Values after ≈ are worked out from the molar mass of the structure shown. “Also recorded” adds a separate entry of the source.

Experiments:
Dunaliella sp. = test: Microalgal PAM fluorometry assay, inhibition of ∆F/Fm′ (24 h, 96-well plate); assay type: cell-based; settings: for LOEC, effect on ∆F/Fm′ / NOEC, effect on ∆F/Fm′: pure transformation product, ANOVA p < 0.05
Source text: Microalgae play a critical role in the marine food web and have been used in a number of sensitive assays for the assessment of toxicity of both herbicides and their transformation products[13],[16],[60]. High throughput 96 well plate designs allow for increased replication and a wide range of concentrations especially when paired with pulse amplitude modulation (PAM) fluorometry[50],[61]. PAM fluorometry measures chlorophyll fluorescence and can be used to calculate inhibitions of effective quantum yield ∆F/Fm′, which is proportional to reduced photosynthetic efficiency[62] and growth in microalgae[63] and can be plotted against toxicant concentrations to derive concentrations that inhibit ∆F/Fm′ by 10, 20 and 50% (IC10, IC20 and IC50). In the present study the green algae (Dunaliella sp.) and coral symbiont (Symbiodinium sp.) were exposed to herbicides and aged herbicide solutions for 24 h in a 96-well plate format. A Maxi-Imaging-PAM (I-PAM) (Walz, GmbH Germany) was used to measure inhibition of ∆F/Fm′ using settings provided previously[36] and below.
Symbiodinium cells were isolated from coral by air blasting branches of Acropora tenuis colonies collected (collected under the permit G10-33440.1) at 2–5 m depth in Nelly Bay, Magnetic Island, GBR[36]. Symbiodinium cells were inoculated into sterile IMK growing media, the culture purified, DNA extracted, and Clade C1 identified as published previously[64],[65]. Cultures were maintained at 26 °C, 60 µE PAR, 14:10 light:dark photoperiod inside environmental chambers (Steridium e500). The Dunaliella sp. (CS-353) (Chlorophyceae) was obtained from the CSIRO Collection of Living Microalgae (CCLM). The algae was subcultured and grown in F2 media. For the toxicology assays, an exponentially growing culture was employed[63] and density adjusted by hemocytometry under 10× magnification. Day 7 sub-cultures were used throughout the experiment.
Herbicide solutions were delivered into each treatment plate using a Perkin Elmer Janus liquid handling system. Each well of the black 96-well plates (Perkin Elmer) received 100 µl herbicide solution as well as 100 µl of algal suspension (added via multi-channel pipette) and the solution was gently mixed. […] Each plate included a 3 µg l^−1 positive diuron control (n = 4) to confirm consistent sensitivities among the replicate algal subcultures. Treatments positions were randomised across the plates in duplicate[50],[61],[66]. Symbiodinium culture plates were incubated over a 12:12 h light:dark cycle at 26 °C and 60–70 µmol photons m^−2 s^−1 and Dunaliella sp. Plates incubated at: 26 °C and 130 µmol photons m^−2 s^−1. Microalgae were exposed for 24 h prior to PAM measurements. Samples were subjected to the 50 µmol photons m^−2 s^−1 actinic light for 1 min prior to measurement in the Maxi-IPAM (Actinic light = 1, ML = 10, ML frequency = 8, gain = 2 and damping = 1).
The model was constrained by applying a lower limit of 0% inhibition and all curves were tested for normality of the residuals and a replicate test was applied to assess the goodness of fit[36]. The probability that ICX values generated by the logistic curves were statistically different between parent and aged herbicide solutions was tested by applying the F test in Graph Pad Prism v6. ICXs were considered different when p < 0.05. Where inhibition data could not be fitted to logistic curves, one-way analysis of variance (ANOVA) was performed to identify treatments which caused significant (p < 0.05) inhibition comparison with control treatments (NCSS v9, Utah, USA). The larval prawn experimental data was arcsine square root transformed prior to statistical analysis.

[1] = Herbicide degradation in outdoor tanks with coastal seawater and sediment (330 d); assay type: physicochemical; settings: day 330, in tank of the parent herbicide, measured or estimated
Source text: Photosystem II herbicides/transformation product solutions were produced by adding herbicides to seawater within separate 120 l outdoor fibreglass tanks, in the presence of natural coastal sediments (further details can be found in Mercurio 2016)[36]. […] The tanks used were previously described in Mercurio et al.[8], with treatment water being partially shaded (70%) and exposed to a maximum of 700 µmol photons m^−2s^−1 over the course of the experiment. The application of a natural diurnal light regime and coastal sediment were previously shown to increase the rates of PSII herbicide degradation and represent more natural conditions than those used in standard degradation tests[8],[36]. Evaporation was minimised with loose-fitting clear acrylic lids and the water continuously circulated using Turbelle Nanostream pumps. Prior to every sampling period evaporation losses were replenished with equal volumes of MilliQ water. The average temperature was 25.7 °C with a range of 15.6–36.6 °C over the course of the study. Unfiltered coastal seawater and sediments were collected from the intertidal zone adjacent to the Australian Institute of Marine Science (19°16′S, 147°03′E), Cape Cleveland, QLD. The sediments were prepared one week prior to use by sieving (>2 mm removed) and thorough mixing. Each tank contained 5 kg of sediment. Physical and chemical information on the seawater and sediments used the treatments can be found in SOM Table 1.
The 20 tanks included replicates for control seawater (n = 4) and the PSII herbicides diuron (n = 4), atrazine (n = 3), simazine (n = 3), hexazinone (n = 3), and ametryn (n = 3). Herbicide treatments and replicates were randomized among tanks. The herbicides were purchased from Sigma Aldrich (>95% purity) and were introduced at ~1 mg l^−1 to enable direct chemical and toxicological testing of the herbicide transformation product mixtures without additional concentration steps. […] The same concentration was used in the controls. Sample collection, internal standard addition, and analytical techniques (HPLC-MS/MS using an AB/Sciex API5500Q mass spectrometer equipped with an electrospray interface and coupled to a Shimadzu Prominence HPLC system) were as previously reported[7],[36]. […] Individual replicates were analysed using HPLC/TripleTOF mass spectrometry for possible transformation products as described in Mercurio 2016[36]. Briefly, 0.2 µm-filtered samples were directly injected into an ABSciex API5600+ Triple TOF mass spectrometer (ABSciex, Concord, Ontario, Canada) equipped with an electrospray (TurboV) interface coupled to a Shimadzu Nexera HPLC system (Shimadzu Corp., Kyoto, Japan). Separation was achieved using a 4 micron 50 × 2.0 mm Phenomenex Synergi Fusion RP column (Phenomenex, Torrance, CA) run at 45 °C, and a flow rate of 0.4 mL min^−1 with a linear gradient starting at 8% B for 0.5 minutes, ramped to 100% B in 8 minutes then held at 100% for 2.0 minutes followed by equilibration at 8% B for 2.5 minutes (A = 1% methanol in HPLC grade water, B = 95% methanol in HPLC grade water, both containing 0.1% acetic acid). The mass spectrometer was operated in positive ion SWATH mode. Briefly this mode comprises a TOF scan of 50 millisecond duration followed by small segments of the mass range being transmitted through the quadrupole, fragmented in the collision cell and full TOF mass spectra taken of the transformation products. Data from these experiments was examined using the Masterview software (ABSciex).
Potential transformation products identified using TOF mass spectrometry and other potential transformation products identified from literature were then re-examined by HPLC/ triple quadrupole mass spectrometry using multiple reaction monitoring. Product ions used were as identified from QTOF data or from literature references and parameters such as collision energy optimised by repeated injections of samples for compounds detected. […]

Compound | Inhibition of ∆F/Fm′ (in words) (Dunaliella sp.; Dunaliella sp., concentrations up to 273 µg l^−1) | LOEC, effect on ∆F/Fm′ (Dunaliella sp.; Dunaliella sp.) [µg/L] | NOEC, effect on ∆F/Fm′ (Dunaliella sp.; Dunaliella sp.) [µg/L] | Transformation product concentration [1] [µg/L] | Inhibition of ∆F/Fm′ (Dunaliella sp.; Dunaliella sp., 458 µg l^−1, significant (ANOVA, p < 0.05)) [%] | Transformation product concentration ([1]; listed as Desisopropyl Atrazine) [µg/L] | IC20 (Dunaliella sp.; 24 h, read-out: IC20 parent (inhibition of ∆F/Fm′ by 20%)) [µg/mL] | IC10 parent (inhibition of ∆F/Fm′ by 10%) (Dunaliella sp.; Dunaliella sp., 24 h, pure compound) | Inhibition of ∆F/Fm′ (Dunaliella sp.; Dunaliella sp., evident at 56 µg l^−1)
Nc1ccc(Cl)c(Cl)c1 [3,4-DCA, 3,4-dichloroaniline] | no significant inhibition; also recorded: did not inhibit ∆F/Fm′ | >273.41 | 273.41 | 2.1 | – | – | – | – | –
CCNc1nc(N)nc(Cl)n1 [DIA, desisopropylatrazine] | – | 458.31 | 148.97 | – | < 8 | 5.1 | – | – | –
CC(C)Nc1nc(N)nc(Cl)n1 [DEA, desethylatrazine] | – | 55.63 | 33.30 | 36 | – | – | 0.31 (≈ 1.65 µM) | 157 (142–173) µg l^−1 | 9–35%
